What all share (type): cell-based
One test has as its system SUM159PT. Briefly: Antiproliferation, CellTiter-Glo, 5 days, SUM159PT. To be noted: Homo sapiens, SUM-159-PT, 120 h, AR+ TNBC. The procedure:
(§1) Cells were treated with serial dilutions of tested compounds with the maximum working concentration of 10 μM. Cell survival was measured 5 days later using a CellTiter-Glo luminescent cell viability assay kit (Promega Corporation). Luminescence was recorded by FLUOstar Omega microplate reader (BMG Labtech). Half maximal inhibitory concentration (IC50) was determined with GraphPad Prism using baseline correction (by normalizing to dimethyl sulfoxide (DMSO) control)
(ATP-based viability assays read luminescence as a measure of living cells.)

The next test relates to MDA-MB-468. Briefly: Antiproliferation, CellTiter-Glo, 5 days, MDA-MB-468. The note with it: Homo sapiens, 120 h, MDA-MB-468, AR− TNBC. The procedure:
as §1, with “For MDA-MB-453, MFM-223, SUM159PT, MDA-MB-468, and HCC1937, 4,000, 3,000, 1,000, 3,000, and 3,000 cells were plated per well in 96-well microplates (Corning Inc), respectively. Cells” for “Cells”

In test [1] the test system is MDA-MB-453 cells. Put plainly: Combination with chemotherapeutic drug Paclitaxel, proliferation of MDA-MB-453 cells, Combination Index. The note with it: molar ratio to Paclitaxel 20:1-5000:1, 7 days. The procedure: Triple negative breast cancer MDA-MB-453 cells in logarithmic growth stage were inoculated into a 96-well plate at a concentration of 4×10^3 cells/well, and then incubated in an incubator at 37° C., 5% CO2, and saturated humidity for 24 h. To the negative control wells, were added RPMI 1640 cell culture medium containing 10% fetal bovine serum in the same volume as the drug. After cultured for 24 h, to the 96-well plate, were sequentially added AR PROTACs compounds 279, 281, 282, ARV-110 and chemotherapeutic drug Paclitaxel, respectively.
(§2) After adding the drugs and co-incubating for 7 days, 10 μL of CCK-8 was added to each well, and then the plate was further cultured for 2 h. The absorbance value (OD) of each well was measured using a microplate reader at a wavelength of 450 nm. The survival rate was calculated using Prism software, the relative survival rate=(OD value of drug well/OD value of control well)×100%. Alternatively, 100 μL of medium was removed from each well, and then 50 μL of CTG was added. The plate was shaken in the dark for 2 min, allowed to stand for 10 min, and then measured using a microplate reader in Luminescence mode. Prism software was used to calculate the survival rate, the relative survival rate=(the RLU value of drug well/the RLU value of control well)×100%.

The subject of the next test is MFM-223. Briefly: Antiproliferation, CellTiter-Glo, 5 days, MFM-223. To be noted: Homo sapiens, 120 h, MFM-223, AR+ TNBC. The procedure:
as §1, with “For MDA-MB-453, MFM-223, SUM159PT, MDA-MB-468, and HCC1937, 4,000, 3,000, 1,000, 3,000, and 3,000 cells were plated per well in 96-well microplates (Corning Inc), respectively. Cells” for “Cells”

In the next test the test system is MDA-MB-453. Briefly: Antiproliferation, CellTiter-Glo, 5 days, MDA-MB-453. The note with it: Homo sapiens, 120 h, MDA-MB-453, AR+ TNBC. The procedure: as §1, with “For MDA-MB-453, MFM-223, SUM159PT, MDA-MB-468, and HCC1937, 4,000, 3,000, 1,000, 3,000, and 3,000 cells were plated per well in 96-well microplates (Corning Inc), respectively. Cells” for “Cells”
For test [2], the system named is MDA-MB-453 cells. Put plainly: Combination with PI3K inhibitor Duvelisib, proliferation of MDA-MB-453 cells, Combination Index. The note with it: molar ratio to Duvelisib 1:30-1:1.111, 7-10 days. The procedure:
Triple negative breast cancer MDA-MB-453 cells in logarithmic growth stage were inoculated into a 96-well plate at a concentration of 4×10^3 cells/well, and then incubated in an incubator at 37° C., 5% CO2, and saturated humidity for 24 h. To the negative control wells, were added RPMI 1640 cell culture medium containing 10% fetal bovine serum in the same volume as the drug. After cultured for 24 h, to the 96-well plate, were sequentially added AR PROTACs compounds 279, 281, 282, ARV-110 and PI3K inhibitor Duvelisib, respectively.
as §2, with “7-10” for “7”

For test [3], the system named is MDA-MB-453 cells. Briefly: Combination with PI3K inhibitor Idelalisib, proliferation of MDA-MB-453 cells, Combination Index. To be noted: molar ratio to Idelalisib 1:270-1:3.333, 7-10 days. The procedure:
Triple negative breast cancer MDA-MB-453 cells in logarithmic growth stage were inoculated into a 96-well plate at a concentration of 4×10^3 cells/well, and then incubated in an incubator at 37° C., 5% CO2, and saturated humidity for 24 h. To the negative control wells, were added RPMI 1640 cell culture medium containing 10% fetal bovine serum in the same volume as the drug. After cultured for 24 h, to the 96-well plate, were sequentially added AR PROTACs compounds 279, 281, 282, ARV-110, ARV-766 and PI3K inhibitor Idelalisib, respectively.
as §2, with “7-10” for “7”

Structures are written as SMILES. Bounds are passed on as bounds.

What is called IC50 is the concentration that inhibits the measured activity by half. Read a high IC50 as a need for much substance. For `N#Cc1ccc(O[C@H]2CC[C@H](NC(=O)c3ccc(N4CCC(CN5CCN(c6cc7c(cc6F)C(=O)N(C6CCC(=O)NC6=O)C7=O)CC5)CC4)nn3)CC2)cc1Cl` (some centres unmarked) [ARV-110, reference compound], the half-inhibitory concentration (IC50) in the test with SUM159PT was 1600 nM; in the test with MDA-MB-468, greater than 10000 nM; in the test on MFM-223 it was 4000 nM; in the test on MDA-MB-453 it was 1400 nM. The “effect of the combination with Paclitaxel on inhibiting proliferation (CI<1 = synergistic)” value in the test on MDA-MB-453 cells [1] was “synergistic effect”. Further, in the test with MDA-MB-453 cells [2], the “effect of the combination with Duvelisib on inhibiting proliferation (CI<1 = synergistic)” value was “synergistic effect”. Also, the “effect of the combination with Idelalisib on inhibiting proliferation (CI<1 = synergistic)” value in the test with MDA-MB-453 cells [3] is given as “synergistic effect”.
In the case of `N#Cc1ccc(O[C@H]2CC[C@H](NC(=O)c3cnc(N4CCC(CN5CCC6(CC5)CN(c5ccc7c(c5)C(=O)N(C5CCC(=O)NC5=O)C7=O)C6)CC4)nn3)CC2)cc1Cl` (some centres unmarked) [Compound 279], the IC50 was 440 nM with SUM159PT, greater than 10000 nM in the test with MDA-MB-468, 460 nM with MFM-223 and 140 nM in the test on MDA-MB-453. Moreover, the “effect of the combination with Paclitaxel on inhibiting proliferation (CI<1 = synergistic)” value in the test on MDA-MB-453 cells [1] is listed as “synergistic effect”. Besides, the “effect of the combination with Duvelisib on inhibiting proliferation (CI<1 = synergistic)” value with MDA-MB-453 cells [2] is recorded as “synergistic effect”. For the same compound, the “effect of the combination with Idelalisib on inhibiting proliferation (CI<1 = synergistic)” value in the test on MDA-MB-453 cells [3] was “synergistic effect”.

The record behind these values is patent US20250082763A1, “COMBINATION DRUG FOR TREATING TRIPLE-NEGATIVE BREAST CANCER” (HINOVA PHARMACEUTICALS INC., priority 2022, published 2025).
